Measurements published in patent US7196110B2, “N-substituted tricyclic 3-aminopyrazoles as inhibitors for the treatment of cell proliferative disorders” (Janssen Phamaceutica N.V., priority 2002, dated 2007).
Read-outs that look alike come from different tables or passages of the source.

Legend:
Type in all cases: cell-based
[1] = tested on: H460 (lung); assay: Anti-cell proliferation in tumor cells (14C-thymidine incorporation), H460
Description: (§1) The effect of compounds of the invention on cell proliferation in various tumor cells was tested based on incorporation of ^14C-thymidine into DNA of cells.
(§2) Similar to those described above in 3a, except that different cells, cell growth medium, and growth supplements were used. Human tumor cell lines derived from various human tissue origins (LoVo from colon, H460 from lung, T47D from breast, PC3 from prostate, A375 from melanoma, AsPC1 from pancreas) were obtained from the American Type Culture Collection (ATCC) and cultured under specified conditions required for each cell type, as provided by ATCC. Complete medium was obtained from Cellgro: Iscove's medium with 10% Fetal Bovine Serium (FBS) (Mediatech, Inc., Herndon, Va. 20171, Cat. No. 10-016-CV).
(§3) Tumor cells were seeded at approx. 3000–8000 cells per well in a volume of 100 μl of complete medium. Cells were grown for 24 hours in complete medium, and 1 μl of test compound was serially diluted in 100% DMSO and added to each well. For maximum growth control wells, only 1 μl of 100% DMSO was added. After 24 hours incubation, 20 μl of ^14C-thymidine master mix was added to each well and the ^14C-thymidine master mix was pepared according to the following regimen:
(§4) Cells were incubated for an additional 24 hours at 37° C. in medium containing test compound and ^14C-thymidine. Then, the reaction mixture was discarded and the plate was washed 2 times each with 200 μl PBS. Subsequently, each well on the plate was filled with 200 μl of PBS. The top of the plate was sealed with transparent plate sealer and white plate backing sealers were applied to the bottom of plates. The retained ^14C inside each well was measured using a Packard TopCount.
(§5) In order to test the potency of inhibition of the present compound, IC50 of an individual compound on the inhibition of tumor cell line proliferation was measured using the above procedure. As used herein, said IC50 refers to the concentration of the test compound at which the amount of tumor cell proliferation is reduced by one-half as compared to the maximum growth control wells without the compound.

[2] = tested on: LoVo (colon); assay: Anti-cell proliferation in tumor cells (14C-thymidine incorporation), LoVo; conditions: Homo sapiens, read-out: IC50 on cell proliferation, LoVo
Description: as §1, §2, §3, §4, §5

[3] = tested on: human umbilical vein endothelial cells (HUVEC); assay: Anti-cell proliferation in normal cells in the absence of PDGF stimulation (BrdU incorporation); conditions: read-out: IC50 on cell proliferation, HUVEC (LSGS)
Description: The effect of compounds of the invention on cell proliferation in normal human primary cell, in particular, human umbilical vein endothelial cells (HUVEC), in the absence of PDGF stimulation was tested based on incorporation of BrdU into DNA of cells.
The following materials were purchased from their respective sources: HUVEC cells from Cascade Biologics, Cat No: C-015-10C; Medium 200 from Cascade Biologics, Cat No: M-200-500; Low serum growth supplements (LSGS) from Cascade Biologics, Cat No: S-003-10; F12-K medium from Gibco/BRL, Cat No: 21127-022; BrdU kit from Roche, Cat No: 1 647 229; and Trypsin/EDTA solution from Cascade Biologics, Cat No: R-001-100.
For propigation, HUVEC cells were grown in M-200 medium supplemented with LSGS. For studies, cells were detached with Trypsin/EDTA solution and washed three times with 10 mL of F12K (LS, low serum) medium and then centrifuged at 400×G for 5 minutes. F-12K (LS) medium is F-12K medium containing 0.2% heat-treated fetal bovine serum.
Cell concentration was adjusted to about 5×10^4 cells/mL in F-12K (LS) medium, and 200 μl (approx. 1×10^4 cells) were added to each well of a 96-well plate. Cells were then incubated for 16 to 20 hours at 37° C. under 95% air/5% CO2 to allow the cells to attach and become quiescent.
Cell proliferation was stimulated by adding 50 μL of a 1:10 dilution of LSGS in F12K (LS). Maximum-stimulated control wells were prepared by adding 50 μl of a 1:10 dilution of LSGS. Zero control wells contained 50 SL of F-12K (LS) medium only. Test compounds in 100% DMSO were added at a volume of 2.5 μl to achieve the desired final drug concentration. Replicates of eight wells per condition were tested. Cells were incubated at 37° C. overnight. On the next day 25 μL of BrdU (1:100 dilution of stock in F-12K (LS) medium) was added to each well.
Cells were incubated for an additional 20–24 hours. The medium was removed and the cells were fixed by adding 200 μL of FixDent solution (included in the BrdU kit) to each well and then incubated at room temperature for an additional 30 minutes. FixDent was removed by flicking and blotting the plates, and 100 μL of anti-BrdU-POD (included in the BrdU kit) diluted at a 1:100 dilution in antibody dilution solution (included in the BrdU kit) was added to each well. The diluted anti-BrdU-POD solution was prepared shortly before use. The plates were incubated at room temperature for 90 minutes.
The unbound antibody was removed by washing three times with Wash Solution (200 uL per wash). Wash Solution was prepared by making a 1:10 dilution of Wash Buffer Stock (included in the BrdU kit) with distilled water. Substrate solution (included in the BrdU kit) (100 uL) was added to each well and incubated for an additional 30–40 minutes. Plates were then read at 405 nm on a 96-well plate reader.
as §5, with “PDGF-BB independent HUVEC” for “tumor cell line”, “HUVEC” for “tumor cell”

[4] = Homo sapiens, NCI-H460; read-out: IC50 on cell proliferation, H460

Row | Structure (SMILES) | IC50 [1, 4] | IC50 [2] | IC50 ([3]; LSGS, PDGF-BB independent) | IC50 ([1]; Homo sapiens, NCI-H460, read-out: IC50 on cell proliferation, H460) | IC50 [3]
1 | COc1cccc(Nc2[nH]nc3c2Cc2cc4c(cc2-3)OCO4)c1 [Compound 97, (2,9-Dihydro-5,7-dioxa-2,3-diaza-cyclopenta[a]-s-indacen-1-yl)-(3-methoxy-phenyl)-amine] | 424 nM | 225 nM | 1910 nM | – | –
2 | COc1cc2c(cc1OC)-c1n[nH]c(Nc3cccc(F)c3)c1C2 [Compound 14, (3-Fluoro-phenyl)-(6,7-dimethoxy-2,4-dihydro-indeno[1,2-c]pyrazol-3-yl)-amine] | – | 11 nM | – | 10 nM | 4870 nM
3 | CN1CCN(c2ccc3c(c2)Cc2c-3n[nH]c2Nc2cccc(Br)c2)CC1 [Compound 122, (3-Bromo-phenyl)-[6-(4-methyl-piperazin-1-yl)-2,4-dihydro-indeno[1,2-c]pyrazol-3-yl]-amine] | 14300 nM | 3840 nM | 223 nM | – | –
4 | COc1cc2c(cc1OC)-c1n[nH]c(NCc3ccccc3)c1C2 [Compound 63, Benzyl-(6,7-dimethoxy-2,4-dihydro-indeno[1,2-c]pyrazol-3-yl)-amine] | 3670 nM | 2400 nM | 2460 nM | – | –
5 | COc1cc2c(cc1OC)-c1n[nH]c(NCc3cc(Cl)ccc3Cl)c1C2 [Compound 330, (2,5-Dichloro-benzyl)-(6,7-dimethoxy-2,4-dihydro-indeno[1,2-c]pyrazol-3-yl)-amine] | 1200 nM | 3700 nM | 49 nM | – | –
6 | COc1cc2c(cc1OC)-c1n[nH]c(Nc3ccccc3F)c1C2 [Compound 12, (6,7-Dimethoxy-2,4-dihydro-indeno[1,2-c]pyrazol-3-yl)-(2-fluoro-phenyl)-amine] | 3 nM | 11 nM | 31 nM | – | –
7 | COC(=O)c1cccc(Nc2[nH]nc3c2Cc2cc(OC)c(OC)cc2-3)c1 [Compound 11, 3-(6,7-Dimethoxy-2,4-dihydro-indeno[1,2-c]pyrazol-3-ylamino)-benzoic acid methyl ester] | 33 nM | 2 nM | 2 nM | – | –
8 | COC(=O)c1cccc(Nc2[nH]nc3c2Cc2cc(OCCCN4CCCC4)c(OC)cc2-3)c1 [Compound 157, 3-[7-Methoxy-6-(3-pyrrolidin-1-yl-propoxy)-2,4-dihydro-indeno[1,2-c]pyrazol-3-ylamino]-benzoic acid methyl ester] | 3590 nM | 2140 nM | 218 nM | – | –
9 | Cc1ccc2c(c1)-c1n[nH]c(Nc3ccccc3)c1C2 [Compound 22, (7-Methyl-2,4-dihydro-indeno[1,2-c]pyrazol-3-yl)-phenyl-amine] | 9270 nM | 13400 nM | 2150 nM | – | –
10 | COc1cc2c(cc1OC)-c1c(c(Nc3cccc(F)c3)nn1C(=O)CO)C2 [Compound 432, 1-[3-(3-Fluoro-phenylamino)-6,7-dimethoxy-4H-indeno[1,2-c]pyrazol-1-yl]-2-hydroxy-ethanone] | – | 35 nM | – | – | –
11 | COc1cc2c(cc1OC)-c1n[nH]c(Nc3cccnc3)c1C2 [Compound 30, (6,7-Dimethoxy-2,4-dihydro-indeno[1,2-c]pyrazol-3-yl)-pyridin-3-yl-amine] | 290 nM | 423 nM | > 1000 nM | – | –
